Results published in paper PMC9133015 (Nature Communications, 2022).
Where “and” joins values, the source holds several entries; their conditions need not be identical. Equal entries are not always repeated. Where two headings read alike, the source gives them in different places.

Biological target: T1, DYRK2 (Homo sapiens, UniProt Q92630)
T1 construct: purchased Reaction Biology Corporation (assay service)
T1 sequence (Q92630 1-601): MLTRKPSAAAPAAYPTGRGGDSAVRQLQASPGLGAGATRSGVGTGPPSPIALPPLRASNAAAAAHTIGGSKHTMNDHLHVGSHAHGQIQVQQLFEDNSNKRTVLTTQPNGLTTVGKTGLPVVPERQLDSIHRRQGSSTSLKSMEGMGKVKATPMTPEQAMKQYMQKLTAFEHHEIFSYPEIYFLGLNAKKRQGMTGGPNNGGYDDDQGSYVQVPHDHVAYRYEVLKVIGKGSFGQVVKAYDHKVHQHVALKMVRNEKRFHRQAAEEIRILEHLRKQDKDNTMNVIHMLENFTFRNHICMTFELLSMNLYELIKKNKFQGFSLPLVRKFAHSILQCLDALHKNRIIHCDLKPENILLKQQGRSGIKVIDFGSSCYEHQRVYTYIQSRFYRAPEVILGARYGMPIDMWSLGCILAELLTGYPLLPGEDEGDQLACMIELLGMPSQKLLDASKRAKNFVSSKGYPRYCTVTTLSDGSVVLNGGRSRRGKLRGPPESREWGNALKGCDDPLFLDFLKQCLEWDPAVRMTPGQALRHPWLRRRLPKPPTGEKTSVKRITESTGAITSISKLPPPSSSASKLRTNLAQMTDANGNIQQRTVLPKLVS
Experiment: DYRKs kinase activity assay (33P-ATP, DYRKtide substrate): DYRK2
Type: biochemical
Details: for inhibition at 0.000508053 µM / inhibition at 0.00152416 µM / inhibition at 0.00457247 µM / % Inhibition / inhibition at 0.0137174 µM / inhibition at 0.0411523 µM / inhibition at 0.123457 µM / inhibition at 0.37037 µM / inhibition at 1.11111 µM / inhibition at 3.33333 µM / inhibition at 10 µM: DYRK2 kinase, duplicate values; for inhibition at 0.00152416 µM / inhibition at 0.0137174 µM / inhibition at 0.0411523 µM / inhibition at 0.123457 µM / inhibition at 0.37037 µM / inhibition at 1.11111 µM / inhibition at 3.33333 µM / inhibition at 10 µM: read-out: % Inhibition

Structure (SMILES)	inhibition at 0.000508053 µM (Conc. 0.000508053 µM) [%]	inhibition at 0.00152416 µM (Conc. 0.00152416 µM) [%]	inhibition at 0.00457247 µM (Conc. 0.00457247 µM) [%]	% Inhibition (Conc. 0.0137174 µM)	inhibition at 0.0137174 µM (Conc. 0.0137174 µM) [%]	% Inhibition (Conc. 0.0411523 µM)	inhibition at 0.0411523 µM (Conc. 0.0411523 µM) [%]	% Inhibition (Conc. 0.123457 µM)	inhibition at 0.123457 µM (Conc. 0.123457 µM) [%]	% Inhibition (Conc. 0.37037 µM)	inhibition at 0.37037 µM (Conc. 0.37037 µM) [%]	% Inhibition (Conc. 1.11111 µM)	inhibition at 1.11111 µM (Conc. 1.11111 µM) [%]	% Inhibition (Conc. 3.33333 µM)	inhibition at 3.33333 µM (Conc. 3.33333 µM) [%]	% Inhibition (Conc. 10 µM)	inhibition at 10 µM (Conc. 10 µM) [%]	% Inhibition (Conc. 0.000508053 µM)	% Inhibition (Conc. 0.00152416 µM)	% Inhibition (Conc. 0.00457247 µM)	further results
Cl.Fc1cnc(Nc2ccc(CN3CCNCC3)cn2)nc1-c1ccc2ncsc2c1 [Compound 18]	-3.69	-1.56	-2.27	12.10%	9.69	21.24%	19	36.98%	36.4	58.36%	56	75.32%	75.1	88.49%	88.2	94.11%	93.9				
CC(C)N1CCN(C(=O)c2ccc(Nc3ncc(F)c(-c4ccc5nc(N(C)C)sc5c4)n3)nc2)CC1 [Compound 25]		14	27.4	45.74%	44.6	67.90%	69.6	84.14%	84.5	92.83%	93.3	95.77%	98	95.36%	94.3	95.58%	96.2	4.24% and 12.86%	17.49%	28.06%	DYRK2 inhibitory activity (in words) (structural optimization of lead 12): further improved DYRK2 inhibitory activity
CCN1CCN(C(=O)c2ccc(Nc3ncc(F)c(-c4ccc5nc(C)sc5c4)n3)nc2)CC1 [Compound 23]	9.2	20.2	32.2	41.99%	41.4	56.16%	55.9	70.45%	70.4		84.9		92.2		95.8		96.2	9.47%	18.47%	32.91%	IC50 (read-out: DYRK2 IC50): 0.022 µM
O=C(c1cccc(Cn2cc(Br)c([N+](=O)[O-])n2)c1)N1CCN(C(=O)c2ccco2)CC1 [Compound 8]				-16.34% and -14.56%		-10.92% and -10.74%		-6.09% and -4.48%		-6.00% and -2.89%		-5.16% and -3.57%		2.31% and 3.77%		17.16% and 18.38%		-2.60% and -0.07%	-3.65% and -2.08%	-3.85% and -2.28%	IC50 (Supplementary Table 1, read-out: IC50 (μM), DYRK2 kinase): > 10 µM
